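Exposure lasted 48 hours, with cells grown in 96-well plates and compounds tested at five concentrations. GI50 = concentration required for 50% inhibition of growth.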 Active and inactive are the calls of the source. Rule as the data show it: active = GI50 up to about 1.1 µM and inactive = higher.
Columns and labels:
Assay in all cases: NCI anticancer screen, dose series, 48 h
MCF7 = test system: MCF7
ACHN = test system: ACHN
A549 = test system: A549
MDA-N = test system: MDA-N
SK-OV-3 = test system: SK-OV-3
LOX IMVI = test system: LOX IMVI
OVCAR-4 = test system: OVCAR-4
SR = test system: SR
M14 = test system: M14
Malme-3M = test system: Malme-3M
Hs-578T = test system: Hs-578T
UO-31 = test system: UO-31
EKVX = test system: EKVX
NCI-H460 = test system: NCI-H460
HT-29 = test system: HT-29
UACC-62 = test system: UACC-62
TK-10 = test system: TK-10
OVCAR-5 = test system: OVCAR-5
SF-295 = test system: SF-295
HL-60 = test system: HL-60

| Structure (SMILES) | GI50 (MCF7) | GI50 (ACHN) | GI50 (A549) | GI50 (MDA-N) | GI50 (SK-OV-3) | GI50 (LOX IMVI) | GI50 (OVCAR-4) | GI50 (SR) | GI50 (M14) | GI50 (Malme-3M) | GI50 (Hs-578T) | GI50 (UO-31) | GI50 (EKVX) | GI50 (NCI-H460) | GI50 (HT-29) | GI50 (UACC-62) | GI50 (TK-10) | GI50 (OVCAR-5) | GI50 (SF-295) | GI50 (HL-60) |
| --- | --- | --- | --- | --- | --- | --- | --- | --- | --- | --- | --- | --- | --- | --- | --- | --- | --- | --- | --- | --- |
| COc1c(O)ccc2c1CN1CCc3cc4c(cc3C1C2)OCO4 (stereo not drawn) | 21.6 µM (inactive) | 16.3 µM (inactive) | 32.5 µM (inactive) | 26.4 µM (inactive) | 23.1 µM (inactive) | 22.8 µM (inactive) | 23.1 µM (inactive) | 0.441 µM (active) | 34.8 µM (inactive) | 33.9 µM (inactive) | 27.4 µM (inactive) | 29.6 µM (inactive) | 47.8 µM (inactive) | 18.4 µM (inactive) | 32.7 µM (inactive) | 27.5 µM (inactive) | 28.9 µM (inactive) | > 65.5 µM (inactive) | 29.7 µM (inactive) | 20 µM (inactive) |
| O=[N+]([O-])c1ccc(C2=Nn3c(nnc3-c3ccc(Cl)cc3)SC2)o1 | 1.88 µM (inactive) | 13.9 µM (inactive) | 14.3 µM (inactive) | 6.17 µM (inactive) | 19.3 µM (inactive) | 3.93 µM (inactive) | 3.11 µM (inactive) | 0.394 µM (active) | 5.46 µM (inactive) | 6.46 µM (inactive) | 5.83 µM (inactive) | 3.5 µM (inactive) | 10.7 µM (inactive) | 6.75 µM (inactive) | 3.22 µM (inactive) | 11.1 µM (inactive) | 14.9 µM (inactive) | 18.3 µM (inactive) | 10.9 µM (inactive) | 0.989 µM (active) |
| O=c1[nH]c2nccnc2c2c([N+](=O)[O-])cccc12 | > 100 µM (inactive) | > 100 µM (inactive) | > 100 µM (inactive) | > 100 µM (inactive) | > 100 µM (inactive) | 81.8 µM (inactive) | > 100 µM (inactive) | > 100 µM (inactive) | > 100 µM (inactive) | > 100 µM (inactive) | 55.5 µM (inactive) | 44.1 µM (inactive) | > 100 µM (inactive) | > 100 µM (inactive) | > 100 µM (inactive) | > 100 µM (inactive) | 81.8 µM (inactive) | > 100 µM (inactive) | > 100 µM (inactive) | > 100 µM (inactive) |
| CSC(=S)Nc1cccc(C)n1 | > 100 µM (inactive) | > 100 µM (inactive) | > 100 µM (inactive) | > 100 µM (inactive) | > 100 µM (inactive) | > 100 µM (inactive) | > 100 µM (inactive) | > 100 µM (inactive) | > 100 µM (inactive) | > 100 µM (inactive) | > 100 µM (inactive) | > 100 µM (inactive) | > 100 µM (inactive) | > 100 µM (inactive) | > 100 µM (inactive) | > 100 µM (inactive) | > 100 µM (inactive) | > 100 µM (inactive) | > 100 µM (inactive) | > 100 µM (inactive) |
| CCOC(=O)C(Cc1ccc(O)cc1)Nc1nc(=O)c2c(=O)oc(Cl)cc2o1 (stereo not drawn) | 4.16 µM (inactive) | 12.2 µM (inactive) | 16.1 µM (inactive) | 2.85 µM (inactive) | 14.4 µM (inactive) | 4.62 µM (inactive) | 12.6 µM (inactive) | 2.7 µM (inactive) | 4.15 µM (inactive) | 3.17 µM (inactive) | 3.07 µM (inactive) | 10.9 µM (inactive) | 12.4 µM (inactive) | 16.4 µM (inactive) | 3.52 µM (inactive) | 11.4 µM (inactive) | 6.58 µM (inactive) | 17.8 µM (inactive) | 16 µM (inactive) | 2.84 µM (inactive) |
| CNC1Cc2c[nH]c3cccc(c23)C12C=C(C)C(=O)O2 (stereo not drawn) | > 100 µM (inactive) | > 100 µM (inactive) | > 100 µM (inactive) | > 100 µM (inactive) | > 100 µM (inactive) | > 100 µM (inactive) | > 100 µM (inactive) | 88.5 µM (inactive) | > 100 µM (inactive) | > 100 µM (inactive) | > 100 µM (inactive) | > 100 µM (inactive) | > 100 µM (inactive) | > 100 µM (inactive) | > 100 µM (inactive) | > 100 µM (inactive) | > 100 µM (inactive) | > 100 µM (inactive) | > 100 µM (inactive) | > 100 µM (inactive) |
| CCC1=C(C)C(=O)N/C1=C\c1[nH]c(C)c([C@H](C)CCN)c1C | 15.5 µM (inactive) | 18.6 µM (inactive) | 16.1 µM (inactive) | 15.3 µM (inactive) | 16.9 µM (inactive) | 15.3 µM (inactive) | 12.8 µM (inactive) | 50.6 µM (inactive) | 15.8 µM (inactive) | 18.7 µM (inactive) | 11.9 µM (inactive) | 15.8 µM (inactive) | 14.4 µM (inactive) | 20.3 µM (inactive) | 15.7 µM (inactive) | 17.3 µM (inactive) |  | 17.5 µM (inactive) | 16.5 µM (inactive) | 10 µM (inactive) |
| COc1ccc(OC)c(CNc2ccc(C(=O)O)cc2)c1 | > 100 µM (inactive) | > 100 µM (inactive) | > 100 µM (inactive) | > 100 µM (inactive) | > 100 µM (inactive) | > 100 µM (inactive) | > 100 µM (inactive) | > 100 µM (inactive) | > 100 µM (inactive) | > 100 µM (inactive) | > 100 µM (inactive) | > 100 µM (inactive) | > 100 µM (inactive) |  | > 100 µM (inactive) | > 100 µM (inactive) | > 100 µM (inactive) | > 100 µM (inactive) |  | > 100 µM (inactive) |
| Nc1nc(S)c2c(N)n[nH]c2c1C(=O)Nc1ccccc1 | > 100 µM (inactive) |  | > 100 µM (inactive) | 50.2 µM (inactive) | > 100 µM (inactive) | > 100 µM (inactive) | > 100 µM (inactive) | 13.9 µM (inactive) | > 100 µM (inactive) | > 100 µM (inactive) | > 100 µM (inactive) | > 100 µM (inactive) | 26.5 µM (inactive) | > 100 µM (inactive) | > 100 µM (inactive) | > 100 µM (inactive) | > 100 µM (inactive) | > 100 µM (inactive) |  | > 100 µM (inactive) |
| CC1=C2C(=O)c3ccccc3C(=O)[C@H]2[C@H]2CCO[C@H]2O1 | 0.3 µM (active) | 20.9 µM (inactive) | 32.2 µM (inactive) | 19.2 µM (inactive) | 50.4 µM (inactive) | 22.3 µM (inactive) | 19.5 µM (inactive) | 35.2 µM (inactive) | 20.6 µM (inactive) | 19.1 µM (inactive) | 41.7 µM (inactive) | 18.1 µM (inactive) | 30.5 µM (inactive) | 21 µM (inactive) | 31.2 µM (inactive) | 20.4 µM (inactive) | 28.5 µM (inactive) | 23.7 µM (inactive) | 23 µM (inactive) | 27.7 µM (inactive) |
| CC1CC(C#N)=C2NCCN2C1=O (stereo not drawn) | 20.8 µM (inactive) |  | > 100 µM (inactive) | 16.4 µM (inactive) | > 100 µM (inactive) | 30.8 µM (inactive) | > 100 µM (inactive) | > 100 µM (inactive) | 19.4 µM (inactive) | 94 µM (inactive) | > 100 µM (inactive) | > 100 µM (inactive) | > 100 µM (inactive) | > 100 µM (inactive) | > 100 µM (inactive) | > 10 µM (inactive) | > 100 µM (inactive) |  | > 100 µM (inactive) | > 100 µM (inactive) |
| CN(C)C(=S)/N=c1\ssc(=S)n1Cc1ccccc1 | 0.82 µM (active) | 0.807 µM (active) | 0.78 µM (active) | 0.0348 µM (active) | 0.434 µM (active) | 0.455 µM (active) | 3.42 µM (inactive) | 0.129 µM (active) | 0.301 µM (active) | 0.243 µM (active) | 0.193 µM (active) | 0.667 µM (active) | 2.15 µM (inactive) | 0.34 µM (active) | 0.308 µM (active) | 0.312 µM (active) | 1.45 µM (inactive) | 20 µM (inactive) | 0.229 µM (active) | 0.338 µM (active) |
| O=Cc1[nH]c(=O)[nH]c(=O)c1C(=O)O | > 100 µM (inactive) | > 100 µM (inactive) | > 100 µM (inactive) | > 100 µM (inactive) | > 100 µM (inactive) | > 100 µM (inactive) | > 100 µM (inactive) | > 100 µM (inactive) | > 100 µM (inactive) | > 100 µM (inactive) | > 100 µM (inactive) | > 100 µM (inactive) | > 100 µM (inactive) | > 100 µM (inactive) | > 100 µM (inactive) | > 100 µM (inactive) | > 100 µM (inactive) | > 100 µM (inactive) | > 100 µM (inactive) | > 100 µM (inactive) |
| CC(C)Cc1cc2c(cc1O)CCC1C2CC[C@@]2(C)C1CC[C@@H]2O (stereo partly drawn) | 8.43 µM (inactive) | 6.95 µM (inactive) | 6.84 µM (inactive) | 7.05 µM (inactive) | 8.17 µM (inactive) | 6.22 µM (inactive) | 8.97 µM (inactive) | 3.85 µM (inactive) | 7.87 µM (inactive) | 17.7 µM (inactive) | 6.19 µM (inactive) | 4.05 µM (inactive) | 8.69 µM (inactive) | 10.5 µM (inactive) | 8.02 µM (inactive) | 7.71 µM (inactive) | 9.48 µM (inactive) | 16.1 µM (inactive) | 4.09 µM (inactive) | 1.94 µM (inactive) |

Reference: ChEMBL document CHEMBL1201862, “PubChem BioAssay data set” (2004)
